Reference: patent publication US20130017272A1, “METHOD FOR TREATING NON-SMALL CELL LUNG CANCER” (priority 2011, published 2013)
Read-outs that look alike come from different tables or passages of the source. Strand notation (5' to 3'): a small letter for the sugar, then the base; units joined by * are phosphorothioate-linked, units joined directly phosphodiester-linked; [ ] holds rarer units or linkages, { } end groups; capitals alone tell only the bases. e = 2'-O-(2-methoxyethyl) (MOE); [5mC] = 5-methylcytosine; d = 2'-deoxy (DNA)

Columns and labels:
[1] = test system: stage IIIB or IV NSCLC; assay: Phase 1-2 study of weekly custirsen plus a gemcitabine/platinum-based regimen: survival by baseline serum clusterin; type: in vivo, human
Experimental: The relationship between serum clusterin levels and the duration of individual survival was evaluated during a phase 1-2 study of weekly custirsen plus a gemcitabine/platinum-based regimen in patients with stage IIIB or IV NSCLC. Not all of the patients in this study had baseline levels of clusterin measured. However, starting with N=69 subjects with measured baseline clusterin levels, fitting the Cox proportional hazards (PH) model with baseline clusterin as sole predictor gives p=0.10; the coefficient is positive, so that higher clusterin is associated with increased survival risk. Among the N=55 subjects who also had post-baseline data collected, fitting the same PH model gives p=0.05, again with positive coefficient.
A careful search for possible cutpoints, using all N=69 subjects with baseline clusterin levels, produced 71 μg/mL as a strong candidate.
Among all N=69 subjects with a baseline clusterin level, there were […] with clusterin ≦71 μg/mL (median survival time was 18.8 months), and N=26 subjects with baseline clusterin >71 μg/mL (median survival time was 10.2 months); the log-rank p-value=0.004. Removing the N=14 early discontinuers leaves N=35 subjects with baseline clusterin ≦71 μg/mL (median survival time was 28.7 months), and N=20 subjects with baseline clusterin >71 μg/mL (median survival time was 12.2 months); the log-rank p-value=0.0002.

[2] = test system: cancerous human prostate, breast, ovarian, lung, renal, bladder, and melanoma cells; conditions: broad range of studies (Miyake et al. 2005); cited from earlier work
[3] = test system: clusterin; conditions: broad range of studies (Miyake et al. 2005); cited from earlier work
[4] = in vivo
Experimental: Three doses of 640 mg custirsen are administered IV during the Loading Dose Period (Days −9 to −1). There is at least one “non-infusion” day between each administration of custirsen (i.e. every other day) during the Loading Dose Period and between the third loading dose of custirsen and Day 1 of Cycle 1. The day prior to Day 1 of Cycle 1 (Day 0) is a “no treatment” day. There are no more than 4 days between the last loading dose and Day 1 of Cycle 1. A common schedule is to give the three loading doses of custirsen on Monday, Wednesday and Friday with Day 1, Cycle 1 starting on the following Monday. Up to nine days are allowed for completing the three loading doses prior to Day 0 to account for clinic visits, weekends, and holidays. Subjects receive each dose of custirsen as a 2 hour infusion.

[5] = cited from earlier work
[6] = test system: NSCLC; conditions: 2nd line setting, from reports; cited from earlier work
[7] = molecular target: CYP3A4 (Homo sapiens, UniProt P08684); conditions: cited from earlier work
Chain of CYP3A4 (P08684 whole entry): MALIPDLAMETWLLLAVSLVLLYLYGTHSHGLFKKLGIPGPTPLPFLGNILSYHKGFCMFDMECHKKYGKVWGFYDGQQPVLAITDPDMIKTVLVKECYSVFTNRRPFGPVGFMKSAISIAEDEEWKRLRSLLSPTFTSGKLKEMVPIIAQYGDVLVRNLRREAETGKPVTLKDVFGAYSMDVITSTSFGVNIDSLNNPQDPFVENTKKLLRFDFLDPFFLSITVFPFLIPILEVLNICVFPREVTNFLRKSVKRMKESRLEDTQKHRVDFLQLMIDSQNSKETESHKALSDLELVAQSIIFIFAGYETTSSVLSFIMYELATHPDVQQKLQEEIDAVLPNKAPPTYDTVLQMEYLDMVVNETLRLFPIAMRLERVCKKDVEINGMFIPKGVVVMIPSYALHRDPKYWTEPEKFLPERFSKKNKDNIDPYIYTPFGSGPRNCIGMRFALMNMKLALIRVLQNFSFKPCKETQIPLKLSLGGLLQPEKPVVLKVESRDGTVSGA

Row | Molecule | median survival time ([1]; baseline clusterin >71 μg/mL, N=20, early discontinuers removed) [months] | median survival time ([1]; baseline clusterin >71 μg/mL, N=26 of all N=69 subjects) [months] | median survival time ([1]; baseline clusterin ≦71 μg/mL, N=35, early discontinuers removed) [months] | median survival time ([1]; baseline clusterin ≦71 μg/mL, N=45 of all N=69 subjects) [months] | sensitization of cancer cells to chemotherapy [2] | expression of clusterin [3] | subjects with grade 1-2 constitutional symptoms (e.g., fever and chills) [4] | patients with grade 4 neutropenia (<500 cells/mm^3) ([5]; 60 mg/m^2) [%] | patients with grade 4 neutropenia (<500 cells/mm^3) ([5]; 100 mg/m^2) [%] | patients with neutropenia (<2,000 neutrophils/mm^3) ([5]; 60-100 mg/m^2) | median PFS [6] | CYP3A4 substrate [7]
1 | custirsen: anti-clusterin antisense oligonucleotide CAGCAGCAGAGTCTTCATCAT, phosphorothioate backbone, 2′-O-methoxyethyl at nucleotides 1-4 and 18-21, 5-methylcytosines at 1, 4, 19 (antisense e[5mC]*eA*eG*e[5mC]*dA*dG*dC*dA*dG*dA*dG*dT*dC*dT*dT*dC*dA*eT*e[5mC]*eA*eT; listed as Homo sapiens) | 12.2 | 10.2 | 28.7 | 18.8 | sensitizes | potently reduces | 50-60% | – | – | – | – | –
2 | CC(=O)O[C@@]12CO[C@@H]1C[C@H](O)[C@@]1(C)C(=O)[C@H](O)C3=C(C)[C@@H](OC(=O)[C@H](O)[C@@H](NC(=O)OC(C)(C)C)c4ccccc4)C[C@@](O)([C@@H](OC(=O)c4ccccc4)[C@H]21)C3(C)C [Docetaxel] | – | – | – | – | – | – | – | 75 | 85 | virtually all | about 3 months | substrate
